Results on eight molecules are retold here after patent USRE30241E, “Esters of 3-(hydroxy or hydroxymethyl)-4-hydroxyphenyl aminomethyl ketones” (Sterling Drug Inc., priority 1970, dated 1980).

Experiment [1] concerns guinea pig bronchioles constricted by carbachol. In words: Bronchodilator Test Method II, in vitro perfused guinea pig lung. On the procedure:
In this method bronchodilator activity in vitro was determined by testing the effect of graded doses of the test compounds on guinea pig bronchioles constricted by carbachol, using the technique reported by Sollman and von Oettingen, Proc. Soc, Exp. Biol. Med., 25,692 (1928) as modified by Tainter, Pedden, and James, J. Pharm. Exp. Ther., 51, 371 (1934) and by Luduena, von Euler, Tullar, and Lands, Arch. intern. Pharmacol., III, 392 (1957).

For experiment [2], the system named is carbachol- or histamine-induced bronchoconstriction. In words: Bronchodilator Test Method I, anesthetized dog, intravenous activity. Type of experiment: in vivo. The conditions noted are these: Canis lupus familiaris, read-out: Bronchodilatation; for inhibition in vivo at 0.0028 mg/kg: 2.8 mcg/kg i.v.; for inhibition in vivo at 0.0056 mg/kg: 5.6 mcg/kg i.v.; for inhibition in vivo at 0.03 mg/kg: 30 mcg/kg i.v.; for inhibition in vivo at 0.24 mg/kg: 240 mcg/kg i.v.; for inhibition in vivo at 0.008 mg/kg: 8 mcg/kg i.v.; for inhibition in vivo at 0.032 mg/kg: 32 mcg/kg i.v.; for inhibition in vivo at 0.128 mg/kg: 128 mcg/kg i.v. On the procedure: Bronchodilator activity was tested in anesthetized dogs (Test Method I) and in vitro on the perfused guinea pig lung (Test Method II), using the following pharmacological test procedures
(§1) Male and female dogs weighing 9-18 kg. each were anesthetized with pentobarbital sodium (30 mg./kg. i.v.). Each animal, with thorax opened at the midsternum, was maintained under artificial ventilation using a constant volume pump (250 ml./stroke; 10 to 12 strokes per minute) attached to the tracheal cannula. The flow of air was controlled by a glass or plastic valve which closed and opened respectively on inflow and outflow of the air to and from the tracheal cannula. Bronchoconstriction and/or bronchodilatation were measured from changes in the basal airway pressure reflected by a transducer attached to the sidearm of the cannula relayed to a polygraph.
Control bronchoconstrictions were induced by intravenous injections of carbachol (choline chloride carbamate) in doses ranging from 4 to 6 micrograms per kilogram or histamine diphosphate in doses ranging from 35 to 45 micrograms per kilogram.
Solutions of the test compounds were prepared in distilled water or in saline (for infusion). […] These solutions were then tested for bronchodilator activity in three ways, viz. (1) by mixing a graded dose of test compound with the constant does of carbachol or histamine in a syringe and injecting the mixture into the femoral vein of the dog, (2) by producing the bronchoconstriction first and injecting the test compound at the time of maximum constriction, and (3) by injecting the test compound first followed by carbachol or histamine in 1-10 minutes. Injections were repeated at 20-30 minutes. Bronchodilator values were obtained by measuring the areas under the response polygraph tracings (the first 5 munite period) of carbachol or histamine controls and of the experimentals using a planimeter. Decrease in the area thus measured was expressed as a percent bronchodilatation in reference to the area of control carbachol or histamine constriction. The mean bronchodilatations (the reductions in constrictions) were plotted against the doses administered and the mean effective dose (ED50) was estimated in micrograms/kilogram from the does-response curves. Blood pressure recording was taken from the femoral artery using an arterial transducer relayed to a polygraph.

The test system is the same in experiment [3]. Kind of experiment: Bronchodilator Test Method I, anesthetized dog, intraduodenal activity. The experiment is classed as in vivo. The conditions noted are these: Canis lupus familiaris, read-out: Bronchodilation; for inhibition in vivo at 0.032 mg/kg: 32 mcg/kg (salt) intraduodenal; for inhibition in vivo at 0.128 mg/kg: 128 mcg/kg (salt) intraduodenal. The method, then: as §1
Control bronchoconstrictions were induced by intravenous injections of carbachol (choline chloride carbamate) in doses ranging from 4 to 6 micrograms per kilogram or histamine diphosphate in doses ranging from 35 to 45 micrograms per kilogram. In the majority of test animals, the above doses of constrictor agents produced a 100-200 percent increase in the normal airway pressure or amplitude.
Injections were repeated at 20-30 minutes.
In intraduodenal studies, in the dog prepared for bronchodilation measurements, the duodenal segment of the small intestine was made easily accessible through a small mid-line incision in the abdomen. The test solution was injected into the duodenum using a fine needle. Commencing 5 minutes after medication, the degree and duration of bronchodilation were tested by injecting a control dose of carbachol or histamine at intervals of 30-60 minutes until the recovery or near-recovery was apparent. In some dogs showing an early recovery, a reference drug was also tested in the same dog 1.5-2 hours after the first medicine.

Read-outs that look alike come from different tables or passages of the source.

For “3,4-bis(p-toluyloxy)-alpha-[1-(tert-butylaminomethyl)propyl]benzyl alcohol hydrochloride [Example 144]”, the “Duration, Mean” value in experiment [1] (dose 500 mcg (base)) was 83 ± 26.8 min.
As for `CC(C)C(=O)Oc1ccc(C(O)CNC(C)(C)C)cc1OC(=O)C(C)C.Cl` (stereo not drawn) [Example 2, 3,4-bis(isobutyryloxy)-alpha-(tert-butylaminomethyl)benzyl alcohol hydrochloride], in experiment [1] (carbachol (Doryl) 1:5 million), the ED50 was 0.28 µg (base). Further, the “Duration, Mean” value in experiment [1] (dose 0.5 mcg (base)) was 9 ± 1.1 min.
Regarding `CC(C)(C)NCC(O)c1ccc(OC(=O)C2(C)CC2)c(OC(=O)C2(C)CC2)c1.Cl` (stereo not drawn) [Example 13, 3,4-bis(1-methylcyclopropanecarbonyloxy)-alpha-(tert-butylaminomethyl)benzyl alcohol hydrochloride], the ED50 in experiment [1] (carbachol (Doryl) 1:5 million) is 0.45 µg (base). In experiment [1] (dose 0.79 mcg (base)), the “Duration, Mean” value is on record as 15 ± 1.7 min. Moreover, the inhibition in vivo at 0.0028 mg/kg is 52% in experiment [2] (2 min, 2 min); 48% in experiment [2] (0.5 h, 30 min); 0% in experiment [2] (1 h, 60 min). The inhibition in vivo at 0.0056 mg/kg in experiment [2] (2 min, 2 min) was found to be 69%; in experiment [2] (0.5 h, 30 min) it was 34%; in experiment [2] (1 h, 60 min), 10%.
Consider `CC(C)(C)NCC(O)c1ccc(OC(=O)C(C)(C)C)c(O)c1` (stereo not drawn) [Example 59, 3-hydroxy-4-(pivalyloxy)-alpha-(tert-butylaminomethyl)benzyl alcohol methanesulfonate], for which, in experiment [1] (carbachol (Doryl) 1:5 million), the ED50 is 1.2 µg (base). In addition, in experiment [1] (dose 3.2 mcg (base)), the “Duration, Mean” value was 25 ± 5.6 min.
As to `Cc1ccc(C(=O)Oc2ccc(C(O)CNC(C)C)cc2OC(=O)c2ccc(C)cc2)cc1` (stereo not drawn) [Example 89, 3,4-bis(p-toluyloxy)-alpha-(isopropylaminomethyl)benzyl alcohol], in experiment [1] (carbachol (Doryl) 1:5 million), the ED50 was 6.4 µg (base). The “Duration, Mean” value in experiment [1] (dose 15 mcg (base)) is given as 125 ± 31 min.
Regarding `CCC(NC1CCCC1)C(O)c1ccc(OC(=O)CC(C)C)c(OC(=O)CC(C)C)c1.Cl` (stereo not drawn) [Example 138, 3,4-bis(isovaleryloxy)-alpha-[1-(cyclopentylamino)propyl]benzylalcohol hydrochloride], in experiment [1] (carbachol (Doryl) 1:5 million), the ED50 is 0.46 µg (base). Also, the “Duration, Mean” value in experiment [1] (dose 1.5 mcg (base)) was determined as 25.4 ± 3.5 min. The inhibition in vivo at 0.03 mg/kg in experiment [2] (5 min, 5 min) is 38%; in experiment [2] (0.5 h, 30 min), 0%. The inhibition in vivo at 0.24 mg/kg in experiment [2] (5 min, 5 min) is 49%; in experiment [2] (0.5 h, 30 min), 62%; in experiment [2] (1 h, 60 min) it was 42%; in experiment [2] (2 h, 120 min) it was 46%.
With `COc1ccc(C(=O)Oc2ccc(C(O)CNC(C)(C)C)cc2OC(=O)c2ccccc2)cc1` (stereo not drawn) [Example 143, 3-benzoyloxy-4-(p-anisoyloxy)-alpha-(tert-butylaminomethyl)benzyl alcohol], in experiment [1] (Doryl conc. 1:10 million), the ED50 was 1.53 µg (base). Moreover, the “Duration, Mean” value in experiment [1] (dose 2 mcg (base), Doryl conc. 1:10 million) came to 29.2 ± 10.2 min.
Consider `CC(=O)OCc1cc(C(O)CNC(C)(C)C)ccc1OC(=O)C12CC3CC(CC(C3)C1)C2` (stereo not drawn) [Example 152, 3-(acetoxymethyl)-4-(1-adamantanecarbonyloxy)-alpha-(tert-butylaminomethyl)benzyl alcohol methanesulfonate], for which the inhibition in vivo at 0.008 mg/kg in experiment [2] (5 min, 5 min) came to 44%; in experiment [2] (0.5 h, 30 min) it was 39%; in experiment [2] (1 h, 60 min), 50%; in experiment [2] (2 h, 120 min) it was 33%; in experiment [2] (3 h, 180 min), 39%; in experiment [2] (4 h, 240 min), 39%. For the same molecule, in experiment [2] (4.5 h, 270 min), the inhibition in vivo at 0.008 mg/kg amounted to 0%. In addition, the inhibition in vivo at 0.032 mg/kg in experiment [2] (5 min, 5 min) was 77%; in experiment [2] (0.5 h, 30 min), 78%; in experiment [2] (1 h, 60 min), 75%; in experiment [2] (2 h, 120 min), 70%; in experiment [2] (3 h, 180 min), 63%; in experiment [2] (4 h, 240 min), 52%. Moreover, the inhibition in vivo at 0.032 mg/kg in experiment [2] (4.5 h, 270 min) came to 45%; in experiment [3] (5 min, 5 min), 6%; in experiment [3] (0.5 h, 30 min), 6%; in experiment [3] (1 h, 60 min) it was 17%; in experiment [3] (2 h, 120 min), 48%; in experiment [3] (3 h, 180 min) it was 45%. The inhibition in vivo at 0.032 mg/kg is 45% in experiment [3] (4 h, 240 min) and 21% in experiment [3] (5 h, 300 min). Also, the inhibition in vivo at 0.128 mg/kg in experiment [2] (5 min, 5 min) was determined as 97%; in experiment [2] (0.5 h, 30 min) it was 92%; in experiment [2] (1 h, 60 min) it was 93%; in experiment [2] (2 h, 120 min), 87%; in experiment [2] (3 h, 180 min) it was 89%; in experiment [2] (4 h, 240 min) it was 88%. The inhibition in vivo at 0.128 mg/kg was found to be 82% in experiment [2] (4.5 h, 270 min); 6% in experiment [3] (5 min, 5 min); 43% in experiment [3] (0.5 h, 30 min); 59% in experiment [3] (1 h, 60 min); 51% in experiment [3] (2 h, 120 min); 65% in experiment [3] (3 h, 180 min). In addition, the inhibition in vivo at 0.128 mg/kg in experiment [3] (4 h, 240 min) came to 59%; in experiment [3] (5 h, 300 min) it was 54%.
